Results published in ChEMBL document CHEMBL4808179 (Bioorg Med Chem Lett, 2021).
Converted amounts (≈) assume the structure as drawn.

Assays:
Staphylococcus aureus [1] = assay: Antibacterial activity against methicillin-susceptible Staphylococcus aureus Newman assessed as bacterial growth inhibition; format: functional
Enterococcus faecium [2] = assay: Antibacterial activity against vancomycin resistant Enterococcus faecium Van B V(R) assessed as inhibition of bacterial growth; format: functional
Staphylococcus aureus [3] = assay: Antibacterial activity against methicillin-resistant Staphylococcus aureus USA300 assessed as bacterial growth inhibition; format: functional
Staphylococcus aureus [4] = assay: Antibacterial activity against vancomycin-intermediate Staphylococcus aureus Mu50 assessed as bacterial growth inhibition; format: functional
Escherichia coli = assay: Antibacterial activity against Escherichia coli AB1157 assessed as bacterial growth inhibition; format: functional
Acinetobacter baumannii = assay: Antibacterial activity against Acinetobacter baumannii assessed as bacterial growth inhibition; format: functional
Enterococcus faecium [5] = assay: Antibacterial activity against vancomycin resistant Enterococcus faecium Van A HS-06188 assessed as inhibition of bacterial growth; format: functional
Enterococcus faecium [6] = assay: Antibacterial activity against vancomycin resistant Enterococcus faecium Van M HS-08267 assessed as inhibition of bacterial growth; format: functional
Staphylococcus aureus [7] = assay: Antibacterial activity against methicillin-resistant Staphylococcus aureus HS-663 assessed as bacterial growth inhibition; format: functional
Enterococcus faecium [8] = assay: Antibacterial activity against vancomycin resistant Enterococcus faecium Van M HS-0847 assessed as inhibition of bacterial growth; format: functional
Enterococcus faecium [9] = assay: Antibacterial activity against vancomycin resistant Enterococcus faecium Van A HS-0649 assessed as inhibition of bacterial growth; format: functional
L02 = assay: Cytotoxicity against human L02 cells assessed as reduction in cell viability >= 12.5 uM; format: cell-based
Staphylococcus aureus [10] = assay: Potency index, ratio of Vancomycin MIC to test compound MIC for antibacterial activity against vancomycin-intermediate Staphylococcus aureus Mu50 assessed as bacterial growth inhibition; format: functional
Enterococcus faecium [11] = assay: Potency index, ratio of Vancomycin MIC to test compound MIC for antibacterial activity against vancomycin resistant Enterococcus faecium Van M HS-0847 assessed as inhibition of bacterial growth; format: functional
Enterococcus faecium [12] = assay: Potency index, ratio of Vancomycin MIC to test compound MIC for antibacterial activity against vancomycin resistant Enterococcus faecium Van B V(R) assessed as inhibition of bacterial growth; format: functional
Enterococcus faecium [13] = assay: Potency index, ratio of Vancomycin MIC to test compound MIC for antibacterial activity against vancomycin resistant Enterococcus faecium Van A HS-06188 assessed as inhibition of bacterial growth; format: functional
Enterococcus faecium [14] = assay: Potency index, ratio of Vancomycin MIC to test compound MIC for antibacterial activity against vancomycin resistant Enterococcus faecium Van M HS-08267 assessed as inhibition of bacterial growth; format: functional
Staphylococcus aureus [15] = assay: Potency index, ratio of Vancomycin MIC to test compound MIC for antibacterial activity against methicillin-susceptible Staphylococcus aureus Newman assessed as bacterial growth inhibition; format: functional

Structure (SMILES)	MIC (Staphylococcus aureus [1]) [µg/mL]	MIC (Enterococcus faecium [2]) [µg/mL]	MIC (Staphylococcus aureus [3]) [µg/mL]	MIC (Staphylococcus aureus [4]) [µg/mL]	MIC (Escherichia coli) [µg/mL]	MIC (Acinetobacter baumannii) [µg/mL]	MIC (Enterococcus faecium [5]) [µg/mL]	MIC (Enterococcus faecium [6]) [µg/mL]	MIC (Staphylococcus aureus [7]) [µg/mL]	MIC (Enterococcus faecium [8]) [µg/mL]	MIC (Enterococcus faecium [9]) [µg/mL]	Activity (L02)	Ratio (Staphylococcus aureus [10])	Ratio (Enterococcus faecium [11])	Ratio (Enterococcus faecium [12])	Ratio (Enterococcus faecium [13])	Ratio (Enterococcus faecium [14])	Ratio (Staphylococcus aureus [15])
CN[C@H](CC(C)C)C(=O)N[C@H]1C(=O)N[C@@H](CC(N)=O)C(=O)N[C@H]2C(=O)N[C@H]3C(=O)N[C@H](C(=O)N[C@H](C(=O)N[C@@H](CS)C(=O)N[C@@H](CCCNC(=N)N)C(=O)N[C@@H](CCCCN)C(=O)N[C@H](C(=O)N[C@@H](CCCNC(=N)N)C(=O)NCC(=O)N4CCC[C@H]4C(=O)N4CCC[C@H]4C(=O)O)C(C)C)c4cc(O)cc(O)c4-c4cc3ccc4O)[C@H](O)c3ccc(c(Cl)c3)Oc3cc2cc(c3O[C@@H]2O[C@H](CO)[C@@H](O)[C@H](O)[C@H]2O[C@H]2C[C@](C)(N)[C@H](O)[C@H](C)O2)Oc2ccc(cc2Cl)[C@H]1O	32 (≈ 13.7 µM)	16 (≈ 6.83 µM)	16 (≈ 6.83 µM)	64 (≈ 27.3 µM)	> 128	> 128	16 (≈ 6.83 µM)	32 (≈ 13.7 µM)	16 (≈ 6.83 µM)	32 (≈ 13.7 µM)								
CN[C@H](CC(C)C)C(=O)N[C@H]1C(=O)N[C@@H](CC(N)=O)C(=O)N[C@H]2C(=O)N[C@H]3C(=O)N[C@H](C(=O)N[C@H](C(=O)N[C@@H](CCCNC(=N)N)C(=O)O)c4cc(O)cc(O)c4-c4cc3ccc4O)[C@H](O)c3ccc(c(Cl)c3)Oc3cc2cc(c3O[C@@H]2O[C@H](CO)[C@@H](O)[C@H](O)[C@H]2O[C@H]2C[C@](C)(N)[C@H](O)[C@H](C)O2)Oc2ccc(cc2Cl)[C@H]1O	8 (≈ 4.98 µM)	64 (≈ 39.9 µM)	4 (≈ 2.49 µM)	64 (≈ 39.9 µM)	> 128	> 128	128 (≈ 79.7 µM)	128 (≈ 79.7 µM)	0.5 (≈ 0.311 µM)	128 (≈ 79.7 µM)	> 128	Toxic						
CN[C@H](CC(C)C)C(=O)N[C@H]1C(=O)N[C@@H](CC(N)=O)C(=O)N[C@H]2C(=O)N[C@H]3C(=O)N[C@H](C(=O)N[C@H](C(=O)N/N=C/c4ccc(-c5ccccc5)cc4)c4cc(O)cc(O)c4-c4cc3ccc4O)[C@H](O)c3ccc(c(Cl)c3)Oc3cc2cc(c3O[C@@H]2O[C@H](CO)[C@@H](O)[C@H](O)[C@H]2O[C@H]2C[C@](C)(N)[C@H](O)[C@H](C)O2)Oc2ccc(cc2Cl)[C@H]1O	≤ 0.0625	2 (≈ 1.23 µM)	0.25 (≈ 0.154 µM)	2 (≈ 1.23 µM)	128 (≈ 78.6 µM)	> 128	4 (≈ 2.46 µM)	2 (≈ 1.23 µM)	0.0625 (≈ 0.0384 µM)	4 (≈ 2.46 µM)	4 (≈ 2.46 µM)		2	8	8	8	8	32
CN[C@H](CC(C)C)C(=O)N[C@H]1C(=O)N[C@@H](CC(N)=O)C(=O)N[C@H]2C(=O)N[C@H]3C(=O)N[C@H](C(=O)N[C@H](C(=O)NNCc4ccc(-c5ccc(C(F)(F)F)cc5)cc4)c4cc(O)cc(O)c4-c4cc3ccc4O)[C@H](O)c3ccc(c(Cl)c3)Oc3cc2cc(c3O[C@@H]2O[C@H](CO)[C@@H](O)[C@H](O)[C@H]2O[C@H]2C[C@](C)(N)[C@H](O)[C@H](C)O2)Oc2ccc(cc2Cl)[C@H]1O	1 (≈ 0.589 µM)	4 (≈ 2.36 µM)	0.5 (≈ 0.295 µM)	2 (≈ 1.18 µM)	> 128	64 (≈ 37.7 µM)	8 (≈ 4.71 µM)	2 (≈ 1.18 µM)	0.0625 (≈ 0.0368 µM)	4 (≈ 2.36 µM)	8 (≈ 4.71 µM)			8	8	8	8	
CN[C@H](CC(C)C)C(=O)N[C@H]1C(=O)N[C@@H](CC(N)=O)C(=O)N[C@H]2C(=O)N[C@H]3C(=O)N[C@H](C(=O)N[C@H](C(=O)NNCc4ccccc4)c4cc(O)cc(O)c4-c4cc3ccc4O)[C@H](O)c3ccc(c(Cl)c3)Oc3cc2cc(c3O[C@@H]2O[C@H](CO)[C@@H](O)[C@H](O)[C@H]2O[C@H]2C[C@](C)(N)[C@H](O)[C@H](C)O2)Oc2ccc(cc2Cl)[C@H]1O	1 (≈ 0.644 µM)	128 (≈ 82.4 µM)	1 (≈ 0.644 µM)	4 (≈ 2.57 µM)	> 128	> 128	64 (≈ 41.2 µM)	32 (≈ 20.6 µM)	0.25 (≈ 0.161 µM)	64 (≈ 41.2 µM)	128 (≈ 82.4 µM)							
CN[C@H](CC(C)C)C(=O)N[C@H]1C(=O)N[C@@H](CC(N)=O)C(=O)N[C@H]2C(=O)N[C@H]3C(=O)N[C@H](C(=O)N[C@H](C(=O)N/N=C/c4ccc(-c5ccc(C(F)(F)F)cc5)cc4)c4cc(O)cc(O)c4-c4cc3ccc4O)[C@H](O)c3ccc(c(Cl)c3)Oc3cc2cc(c3O[C@@H]2O[C@H](CO)[C@@H](O)[C@H](O)[C@H]2O[C@H]2C[C@](C)(N)[C@H](O)[C@H](C)O2)Oc2ccc(cc2Cl)[C@H]1O	1 (≈ 0.59 µM)	1 (≈ 0.59 µM)	0.5 (≈ 0.295 µM)	2 (≈ 1.18 µM)	> 128	> 128	4 (≈ 2.36 µM)	2 (≈ 1.18 µM)	0.0625 (≈ 0.0369 µM)	4 (≈ 2.36 µM)	4 (≈ 2.36 µM)			8	8	8	8	
CN[C@H](CC(C)C)C(=O)N[C@H]1C(=O)N[C@@H](CC(N)=O)C(=O)N[C@H]2C(=O)N[C@H]3C(=O)N[C@H](C(=O)N[C@H](C(=O)N/N=C/c4ccccc4)c4cc(O)cc(O)c4-c4cc3ccc4O)[C@H](O)c3ccc(c(Cl)c3)Oc3cc2cc(c3O[C@@H]2O[C@H](CO)[C@@H](O)[C@H](O)[C@H]2O[C@H]2C[C@](C)(N)[C@H](O)[C@H](C)O2)Oc2ccc(cc2Cl)[C@H]1O	2 (≈ 1.29 µM)	128 (≈ 82.5 µM)	2 (≈ 1.29 µM)	16 (≈ 10.3 µM)	> 128	> 128	128 (≈ 82.5 µM)	64 (≈ 41.3 µM)	0.5 (≈ 0.322 µM)	64 (≈ 41.3 µM)	128 (≈ 82.5 µM)	Toxic						
CN[C@H](CC(C)C)C(=O)N[C@H]1C(=O)N[C@@H](CC(N)=O)C(=O)N[C@H]2C(=O)N[C@H]3C(=O)N[C@H](C(=O)N[C@H](C(=O)N[C@@H](CS)C(=O)O)c4cc(O)cc(O)c4-c4cc3ccc4O)[C@H](O)c3ccc(c(Cl)c3)Oc3cc2cc(c3O[C@@H]2O[C@H](CO)[C@@H](O)[C@H](O)[C@H]2O[C@H]2C[C@](C)(N)[C@H](O)[C@H](C)O2)Oc2ccc(cc2Cl)[C@H]1O	64 (≈ 41.2 µM)	8 (≈ 5.15 µM)	32 (≈ 20.6 µM)	128 (≈ 82.5 µM)	> 128	> 128	16 (≈ 10.3 µM)	8 (≈ 5.15 µM)	2 (≈ 1.29 µM)	8 (≈ 5.15 µM)	> 128	Toxic		8	8	8	8	
CC[C@H](C)[C@H](NC(=O)[C@H](CCCCN)NC(=O)[C@@H](NC(=O)[C@H](CC(N)=O)NC(=O)[C@H](CS)NC(=O)[C@H]1NC(=O)[C@H]2NC(=O)[C@H](NC(=O)[C@@H]3NC(=O)[C@H](CC(N)=O)NC(=O)[C@H](NC(=O)[C@@H](CC(C)C)NC)[C@H](O)c4ccc(c(Cl)c4)Oc4cc3cc(c4O[C@@H]3O[C@H](CO)[C@@H](O)[C@H](O)[C@H]3O[C@H]3C[C@](C)(N)[C@H](O)[C@H](C)O3)Oc3ccc(cc3Cl)[C@H]2O)c2ccc(O)c(c2)-c2c(O)cc(O)cc21)[C@@H](C)CC)C(=O)N[C@@H](CO)C(=O)NCC(=O)N[C@@H](CCCCN)C(=O)N[C@@H](Cc1c[nH]c2ccccc12)C(=O)N[C@@H](CCCCN)C(=O)N[C@@H](C)C(=O)N[C@@H](CCC(N)=O)C(=O)N[C@@H](CCCCN)C(=O)N[C@@H](CCCNC(=N)N)C(=O)N[C@@H](Cc1ccccc1)C(=O)N[C@@H](CC(C)C)C(=O)O	32 (≈ 9.55 µM)	32 (≈ 9.55 µM)	32 (≈ 9.55 µM)	32 (≈ 9.55 µM)	> 128	> 128	64 (≈ 19.1 µM)	32 (≈ 9.55 µM)	16 (≈ 4.77 µM)	32 (≈ 9.55 µM)								
CN[C@H](CC(C)C)C(=O)N[C@H]1C(=O)N[C@@H](CC(N)=O)C(=O)N[C@H]2C(=O)N[C@H]3C(=O)N[C@H](C(=O)N[C@H](C(=O)N[C@@H](CCCNC(=N)N)C(N)=O)c4cc(O)cc(O)c4-c4cc3ccc4O)[C@H](O)c3ccc(c(Cl)c3)Oc3cc2cc(c3O[C@@H]2O[C@H](CO)[C@@H](O)[C@H](O)[C@H]2O[C@H]2C[C@](C)(N)[C@H](O)[C@H](C)O2)Oc2ccc(cc2Cl)[C@H]1O	2 (≈ 1.25 µM)	64 (≈ 39.9 µM)		2 (≈ 1.25 µM)	32 (≈ 19.9 µM)	> 128	64 (≈ 39.9 µM)	64 (≈ 39.9 µM)	0.25 (≈ 0.156 µM)	64 (≈ 39.9 µM)	64 (≈ 39.9 µM)	Toxic						
CN[C@H](CC(C)C)C(=O)N[C@H]1C(=O)N[C@@H](CC(N)=O)C(=O)N[C@H]2C(=O)N[C@H]3C(=O)N[C@H](C(=O)N[C@H](C(=O)O)c4cc(O)cc(O)c4-c4cc3ccc4O)[C@H](O)c3ccc(c(Cl)c3)Oc3cc2cc(c3O[C@@H]2O[C@H](CO)[C@@H](O)[C@H](O)[C@H]2O[C@H]2C[C@](C)(N)[C@H](O)[C@H](C)O2)Oc2ccc(cc2Cl)[C@H]1O [VANCOMYCIN]				8 (≈ 5.52 µM)					0.25 (≈ 0.173 µM)	64 (≈ 44.2 µM)								
